Data from patent US7989203B2, “Methods for use of apoptotic cells to deliver antigen to dendritic cells for induction or tolerization of T cells” (The Rockefeller University, priority 1998, dated 2011).
“Also recorded” adds a separate entry of the source. Read-outs that look alike come from different tables or passages of the source. *: point of attachment. Cbz = O=C(OCc1ccccc1)*

What was measured:
DCs [1] = format: cell-based, human
immature DCs = format: cell-based, human; settings: for Percent Inhibition of phagocytosis of apoptotic cells: immature DC/apoptotic cell coculture, averages of 2-4 experiments
protein kinase C = settings: footnote to Table II; cited from earlier work
DCs [2] = assay: Y-Ae epitope (I-Ab/I-E peptide complex) formation on DCs cultured with B blasts (FACS); format: cell-based, mouse; settings: DCs cultured 20 h with B blasts
Method: [FIG. 11B]: Y-Ae epitope formation is blocked by NH4Cl. DCs were cultured 20 h with B blasts with or without NH4Cl at 5-20 mM. The cultures were stained for Y-Ae and CD86.
Antibodies. The Y-Ae hybridoma was generously provided by Dr. C. Janeway, Yale University, New Haven Conn. and grown serum-free. The IgG2b antibody was purified on protein A sepharose, biotinylated, and used in the FACS along with PE-streptavidin to detect MHC class II-peptide complexes (75,76) with a mouse IgG2b anti-human TCR antibody as the non-reactive control [PharMingen, San Diego Calif.]. The cells were double labeled for FACS and for microscopy with FITC antibodies to CD8, CD11c, CD86, I-Ab [AF6-120.1], 1-Ad, and I-E [14-4-4S][PharMingen].
Capture of cell-derived peptides in vitro. Bone marrow DCs were generated in 24 well plates for 6 days in GM-CSF, gently washed to remove mature floating DCs, and then fed B blasts, human cells, or a peptide [residues 56-73 of 1-Eα]. Before adding I-E^+ cells or peptide, the DCs were immature, since much of the MHC class II was in intracellular lysosomal compartments and CD86 was not expressed at the surface (84) After uptake of I-E, the DCs matured with high levels of surface MHC II and CD86.

[3] = tested on: influenza-infected monocytes; format: cell-based, human; settings: concentrations which inhibited apoptosis of the infected monocytes; 7 days
[4] = tested on: influenza-infected monocytes; format: cell-based, human; settings: determined by TUNEL; without affecting expression of viral proteins
phospholipase D = settings: footnote to Table II; cited from earlier work

Compound: C[C@H]1CCC/C=C/[C@@H]2C[C@H](O)C[C@H]2[C@H](O)/C=C/C(=O)O1 [BFA, Brefeldin A]
- DCs ability to present antigenic material on MHC class I (DCs [1]; DCs preincubated with 6 ug/ml): completely inhibited

Compound: COc1ccc2c(c[n+](C)c3c4cc5c(cc4ccc23)OCO5)c1OC.[Cl-] [CC, Chelethrine chloride]
- Percent Inhibition of phagocytosis of apoptotic cells (immature DCs; 12 μM): 4%
- IC50 (protein kinase C): 0.66 µM

Compound: C=C1[C@@H](C)[C@H]2[C@H](Cc3ccccc3)NC(=O)[C@]23[C@H](OC(C)=O)/C=C/[C@@](C)(O)C(=O)[C@@H](C)C/C=C/[C@H]3[C@@H]1O [Cytochalasin D]
- inhibition of phagocytosis of apoptotic cells by immature DCs (in words) (immature DCs; concentration not given): blocked uptake

Compound: O=C(O)CN(CCN(CC(=O)O)CC(=O)O)CC(=O)O [EDTA]
- inhibition of phagocytosis of apoptotic cells by immature DCs (in words) (immature DCs): inhibitory

Compound: O=C(O)c1cc(N(Cc2ccccc2O)Cc2cc(O)ccc2O)ccc1O [LA, Lavendustin A]
- Percent Inhibition of phagocytosis of apoptotic cells (immature DCs; 10 μM): 14%
- Percent Inhibition of phagocytosis of apoptotic cells (immature DCs; 40 μM): 41.5%

Compound: O=C(O)c1cc(N(Cc2ccccc2O)Cc2ccccc2O)ccc1O [LB, Lavendustin B]
- Percent Inhibition of phagocytosis of apoptotic cells (immature DCs; 10 μM): 0%
- Percent Inhibition of phagocytosis of apoptotic cells (immature DCs; 40 μM): 0%

Compound: CC(=O)N[C@@H](CSC(=O)[C@]1([C@@H](O)C(C)C)NC(=O)[C@H](C)[C@@H]1O)C(=O)O [Lactacystin]
- antigen presentation by the uninfected DCs (DCs [1]; unpublished data, concentration not given): only partially blocked

Compound: Cl.N [NH4Cl, ammonium chloride]
- DCs ability to present antigenic material on MHC class I (DCs [1]): completely inhibited
- Y-Ae development (epitope formation) (DCs [2]; 5 mM): partially
- Y-Ae development (epitope formation) (DCs [2]; 20 mM): totally blocked; also recorded: completely blocked

Compound: Cbz-Val-Ala-Asp-aldehyde
- generation of virus-specific CTLs after transfer of medium from treated infected monocytes to T cells and uninfected DCs [3]: virus-specific CTLs were not generated
- apoptosis of influenza-infected monocytes [4]: block apoptosis

Compound: Herbamycin A
- Percent Inhibition of phagocytosis of apoptotic cells (immature DCs; 1.8 μM): 6.5%
- Percent Inhibition of phagocytosis of apoptotic cells (immature DCs; 9 μM): 49%
- Percent Inhibition of phagocytosis of apoptotic cells (immature DCs; 18 μM): 66.5%
- IC50, PDGF-induced phospholipase D activation (phospholipase D): ^§Herbamycin A is a potent cell-permeable protein tyrosine kinase inhibitor and inhibits PDGF-induced phospholipase D activation (IC50 = 8 μg/ml) in a dose dependant manner.

Compound: TSP: purified TSP (thrombospondin)
- inhibition of phagocytosis of apoptotic cells by immature DCs (in words) (immature DCs; concentration not given): nor the addition of purified TSP to DC/apoptotic cell co-cultures has an inhibitory effect
